According to patent publication US11440940B2, “Polymyxin B component or salt thereof, and preparation and application thereof” (SPH NO.1 BIOCHEMICAL & PHARMACEUTICAL CO.,LTD., priority 2020, dated 2022):
In brackets after ≈: the same amount, converted by molar mass. Where two headings read alike, the source gives them in different places. Where a SMILES comes first, the peptide text is derived from it. Bridges are numbered along the chain shown (N, C = ends). [ ]: non-standard residue; d: D form. The star is where a group is joined. aThr = C[C@H](O)[C@H](N)C(=O)O; X2 = CC[C@@H](C)CC/C=C/C(=O)*; X1 = CC[C@@H](C)CCCCC(=O)*; Dab = NCC[C@H](N)C(=O)O

How the values were obtained:
[1] = test system: Acinetobacter baumannii ATCC19606; assay type: cell-based
Description: Minimal inhibitory concentrations (MIC) of the polymyxin B1 (PMB1) and the 2′,3′-dehydropolymyxin B1 against Acinetobacter baumannii were determined using a microdilution broth method as instructed by Clinical & Laboratory Standards Institute (CLSI). Specifically, Acinetobacter baumannii ATCC19606 (standard strain) was inoculated into a 96-well plate at a density of […], to which a PMB1 solution (as control) or a 2′,3′-dehydropolymyxin B1 solution was added to a series of final concentrations of 0.125, 0.25, 0.5, 1, 2, 4 and 8 mg/L. The 96-well plate was incubated at 35±2° C. for 18-24 h, and then observed for the turbidity in each test well, where the lowest concentration of PMB1 or 2′,3′-dehydropolymyxin B1 under which the system in the test well became clear was considered as the corresponding MIC.

[2] = test system: Pseudomona aeruginosa ATCC27853; assay type: cell-based
Description: Furthermore, the polymyxin B1 (PMB1) and the 2′,3′-dehydropolymyxin B1 were also determined for MIC against Pseudomona aeruginosa using the microdilution broth method as instructed by CLSI. Similarly, the Pseudomona aeruginosa ATCC27853 (standard strain) was inoculated into a 96-well plate at a density of 10^6 CFU/mL, to which a PMB1 solution (as control) or a 2′,3′-dehydropolymyxin B1 solution was added to a series of final concentrations of 0.125, 0.25, 0.5, 1, 2, 4 and 8 mg/L. The 96-well plate was incubated at […] for 18-24 h, and then observed for the turbidity in each test well, where the lowest concentration of PMB1 or 2′,3′-dehydropolymyxin B1 under which the system in the test well became clear was considered as the corresponding MIC.

Compound: CC[C@@H](C)CC/C=C/C(=O)N[C@@H](CCN)C(=O)N[C@H](C(=O)N[C@@H](CCN)C(=O)N[C@H]1CCNC(=O)[C@H]([C@H](C)O)NC(=O)[C@H](CCN)NC(=O)[C@H](CCN)NC(=O)[C@H](CC(C)C)NC(=O)[C@@H](Cc2ccccc2)NC(=O)[C@H](CCN)NC1=O)[C@H](C)O [2′,3′-dehydropolymyxin B1] (X2-[Dab][aThr][Dab][Dab][Dab][dF]L[Dab][Dab][aThr]; lactam 4-C)
- MIC ([1]; ATCC19606): 0.5 µg/mL (≈ 0.416 µM)
- MIC ([2]; ATCC27853): 1 µg/mL (≈ 0.832 µM)

Compound: CC[C@@H](C)CCCCC(=O)N[C@@H](CCN)C(=O)N[C@H](C(=O)N[C@@H](CCN)C(=O)N[C@H]1CCNC(=O)[C@H]([C@H](C)O)NC(=O)[C@H](CCN)NC(=O)[C@H](CCN)NC(=O)[C@H](CC(C)C)NC(=O)[C@@H](Cc2ccccc2)NC(=O)[C@H](CCN)NC1=O)[C@H](C)O [Polymyxin B1, polymyxin B1] (X1-[Dab][aThr][Dab][Dab][Dab][dF]L[Dab][Dab][aThr]; lactam 4-C)
- MIC ([1]; Acinetobacter baumannii ATCC19606 (standard strain), 96-well plate, 35±2° C., 18-24 h, turbidity): 1 µg/mL (≈ 0.831 µM)
- MIC ([2]; Pseudomona aeruginosa ATCC27853 (standard strain), 96-well plate, 18-24 h, turbidity): 1 µg/mL (≈ 0.831 µM)
